Data published in patent publication US20230031406A1, “COMPOUNDS AND COMPOSITIONS FOR TREATING CONDITIONS ASSOCIATED WITH NLRP ACTIVITY” (Novartis AG, priority 2018, published 2023).
Read-outs that look alike come from different tables or passages of the source. Each block holds one molecule with its values, some of them ahead of it.

Test system: PMA-differentiated THP-1 cells
Assay: IL-1β production in PMA-differentiated THP-1 cells stimulated with gramicidin (hTHP-1 assay containing 2% fetal bovine serum; Procedures 1 and 2)
Format: cell-based, human
Details: 2% fetal bovine serum
Experimental: The following protocol is suitable for testing the activity of the compounds disclosed herein. Procedure 1: IL-1β Production in PMA-Differentiated THP-1 Cells Stimulated with Gramicidin.
THP-1 cells were purchased from the American Type Culture Collection and sub-cultured according to instructions from the supplier. Cells were cultured in complete RPMI 1640 (containing 10% heat inactivated FBS, penicillin (100 units/ml) and streptomycin (100 μg/ml)), and maintained in log phase prior to experimental setup. Prior to the experiment, compounds were dissolved in dimethyl sulfoxide (DMSO) to generate a 30 mM stock. The compound stock was first pre-diluted in DMSO to 3, 0.34, 0.042 and 0.0083 mM intermediate concentrations and subsequently spotted using Echo550 liquid handler into an empty 384-well assay plate to achieve desired final concentration (e.g. 100, 33, 11, 3.7, 1.2, 0.41, 0.14, 0.046, 0.015, 0.0051, 0.0017 μM). DMSO was backfilled in the plate to achieve a final DMSO assay concentration of 0.37%. The plate was then sealed and stored at room temperature until required.
THP-1 cells were treated with PMA (Phorbol 12-myristate 13-acetate) (20 ng/ml) for 16-18 hours. On the day of the experiment the media was removed and adherent cells were detached with trypsin for 5 minutes. Cells were then harvested, washed with complete RPMI 1640, spun down, and resuspended in RPMI 1640 (containing 2% heat inactivated FBS, penicillin (100 units/ml) and streptomycin (100 μg/ml). The cells were plated in the 384-well assay plate containing the spotted compounds at a density of 50,000 cells/well (final assay volume 50 μl). Cells were incubated with compounds for 1 hour and then stimulated with gramicidin (5 μM) (Enzo) for 2 hours. Plates were then centrifuged at 340 g for 5 min. Cell free supernatant (40 μL) was collected using a 96—CHannel PlateMaster (Gilson) and the production of IL-1β was evaluated by HTRF (cisbio). The plates were incubated for 18 h at 4° C. and read using the preset HTRF program (donor emission at 620 nm, acceptor emission at 668 nm) of the SpectraMax i3x spectrophotometer (Molecular Devices, software SoftMax 6). A vehicle only control and a dose titration of CRID3 (100-0.0017 μM) were run concurrently with each experiment.
Procedure 2: IL-1β Production in PMA-Differentiated THP-1 Cells Stimulated with Gramicidin.
THP-1 cells were purchased from the American Type Culture Collection and sub-cultured according to instructions from the supplier. Prior to experiments, cells were cultured in complete RPMI 1640 (containing 10% heat inactivated FBS, penicillin (100 units/ml) and streptomycin (100 μg/ml)), and maintained in log phase prior to experimental setup. Prior to the experiment THP-1 were treated with PMA (Phorbol 12-myristate 13-acetate) (20 ng/ml) for 16-18 hours. Compounds were dissolved in dimethyl sulfoxide (DMSO) to generate a 30mM stock. On the day of the experiment the media was removed and adherent cells were detached with trypsin for 5 minutes. Cells were then harvested, washed with complete RPMI 1640, spun down, resuspended in RPMI 1640 (containing 2% heat inactivated FBS, penicillin (100 units/ml) and streptomycin (100 μg/ml). The cells were plated in a 384-well plate at a density of 50,000 cells/well (final assay volume […]). Compounds were first dissolved in assay medium to obtain a 5× top concentration of 500 μM. 10 step dilutions (1:3) were then undertaken in assay medium containing 1.67% DMSO. 5× compound solutions were added to the culture medium to achieve desired final concentration (e.g. 100, 33, 11, 3.7, 1.2, 0.41, 0.14, 0.046, 0.015, 0.0051, 0.0017 μM). Final DMSO concentration was at 0.37%. Cells were incubated with compounds for 1 hour and then stimulated with gramicidin (5 μM) (Enzo) for 2 hours. Plates were then centrifuged at 340 g for 5 min. Cell free supernatant (40 μL) was collected using a 96—CHannel PlateMaster (Gilson) and the production of IL-1β was evaluated by HTRF (cisbio). […]

[1] = Homo sapiens, THP-1, Table B2, numeric bounds, read-out: hTHP-1 IC50
[2] = Homo sapiens, THP-1, Table B1, class symbols, read-out: Average IC50 of compounds in hTHP-1 assay: hTHP-1 IC50
[3] = Homo sapiens, THP-1, Table B3, hTHP-1 assay, class symbols, read-out: IC50
[4] = Homo sapiens, THP-1, Table B4, class symbols, read-out: hTHP-1 IC50
[5] = Table B2, class symbols, read-out: hTHP-1 IC50
[6] = Homo sapiens, THP-1, Table B2, class symbols, read-out: hTHP-1 IC50
[7] = Table B1, class symbols, read-out: Average IC50 of compounds in hTHP-1 assay: hTHP-1 IC50

Structure (SMILES): CC(C)(O)c1cnc(S(N)(=O)=NC(=O)Nc2c3c(nc4c2CCC4O)CCC3)s1 (stereo not drawn) [Compound 710]
IC50 [1]: > 30 µM

Structure (SMILES): Cc1c(C(F)(F)F)nc2c(c1NC(=O)N=S(N)(=O)c1cnn3c1OCCC3)CCC2 (single isomer, unassigned) [Example 658, (S) or (R)-N′-((3-methyl-2-(trifluoromethyl)-6,7-dihydro-5H-cyclopenta[b]pyridin-4-yl)carbamoyl)-6,7-dihydro-5H-pyrazolo[5,1-b][1,3] oxazine-3-sulfonimidamide]
IC50 (Homo sapiens, THP-1, Table B3, hTHP-1 assay, numeric values, read-out: IC50): > 30 µM

Structure (SMILES): CC(C)(O)c1cnc(S(N)(=O)=NC(=O)Nc2c3c(nc4c2CCC4)CCC3)s1 (stereo not drawn) [Compound 167]
IC50 [2]: 1 to 5 µM

Structure (SMILES): CCn1nc(S(N)(=O)=NC(=O)Nc2c3c(nc4c2CCC4(C)C)CCC3)cc1CO (stereo not drawn) [Example 591, N′-((3,3-dimethyl-1,2,3,5,6,7-hexahydrodicyclopenta[b,e]pyridin-8-yl)carbamoyl)-1-ethyl-5-(hydroxymethyl)-1H-pyrazole-3-sulfonimidamide]
IC50 [3]: 1 to 5 µM

Structure (SMILES): CCc1c(C(F)(F)F)nc2c(c1NC(=O)N=S(N)(=O)c1nn(CC)cc1F)CCC2 (stereo not drawn) [Example 743, 1-Ethyl-N′-((3-ethyl-2-(trifluoromethyl)-6,7-dihydro-5H-cyclopenta[b]pyridin-4-yl)carbamoyl)-4-fluoro-1H-pyrazole-3-sulfonimidamide]
IC50 [4]: 1 to 5 µM

Structure (SMILES): Cc1c(CO)nc2c(c1NC(=O)N=S(N)(=O)c1cnc(C(C)(C)O)s1)CCC2 (stereo not drawn) [Compound 619, N-((2-(hydroxymethyl)-3-methyl-6,7-dihydro-5H-cyclopenta[b]pyridin-4-yl)carbamoyl)-2-(2-hydroxypropan-2-yl)thiazole-5-sulfonimidamide]
IC50 [6]: 5 to 30 µM

Structure (SMILES): C[C@H]1CCc2c1nc1c(c2NC(=O)N=S(N)(=O)c2cnc([C@@](C)(O)CO)s2)CCC1 (single isomer, unassigned) [Example 729]
IC50 [4]: 1 to 5 µM

Structure (SMILES): CC1(C)CCc2c1nc1c(c2NC(=O)N=S(N)(=O)c2sc(C(C)(O)CO)cc2F)CCC1 (stereo not drawn) [Compound 640, 5-(1,2-Dihydroxypropan-2-yl)-N′-((3,3-dimethyl-1,2,3,5,6,7-hexahydrodicyclopenta[b,e]pyridin-8-yl)carbamoyl)-3-fluorothiophene-2-sulfonimidamide]
IC50 [5]: 0.2 to 1 µM

Structure (SMILES): CCn1ccc(S(N)(=O)=NC(=O)Nc2c(C)c(C(F)(F)F)nc3c2CCC3)n1 (stereo not drawn) [Example 634, 1-Ethyl-N′-((3-methyl-2-(trifluoromethyl)-6,7-dihydro-5H-cyclopenta[b]pyridin-4-yl)carbamoyl)-1H-pyrazole-3-sulfonimidamide]
IC50 [3]: 1 to 5 µM

Structure (SMILES): Cc1c(C(F)(F)F)nc2c(c1NC(=O)N=S(N)(=O)c1cnc(C(C)(C)O)s1)CCC2C (single isomer, unassigned) [Example 705, (S, R) or (S, S)-N′-((3,7-dimethyl-2-(trifluoromethyl)-6,7-dihydro-5H-cyclopenta[b]pyridin-4-yl)carbamoyl)-2-(2-hydroxypropan-2-yl)thiazole-5-sulfonimidamide]
IC50 [3]: 5 to 30 µM

Structure (SMILES): CC(C)(O)c1csc(S(N)(=O)=NC(=O)Nc2c3c(nc4c2CCC42CC2)CCC3)c1 (stereo not drawn) [Compound 114]
IC50 [2]: 0.04 to 0.2 µM

Structure (SMILES): CC(C)(O)c1cccc(S(N)(=O)=NC(=O)Nc2c3c(nc4c2CCC4)CCC3)c1 (stereo not drawn) [Compound 625, N′-((1,2,3,5,6,7-hexahydrodicyclopenta[b,e]pyridin-8-yl)carbamoyl)-3-(2-hydroxypropan-2-yl)benzenesulfonimidamide]
IC50 [6]: 5 to 30 µM

Structure (SMILES): CO[C@H]1COc2c(S(N)(=O)=NC(=O)Nc3c(C)c(C(F)(F)F)nc4c3CCC4)cnn2C1 (stereo partly drawn) [Example 564, (6R)-6-methoxy-N′-((3-methyl-2-(trifluoromethyl)-6,7-dihydro-5H-cyclopenta[b]pyridin-4-yl)carbamoyl)-6,7-dihydro-5H-pymzolo[5,1-b][1,3]oxazine-3-sulfonimidamide]
IC50 [3]: 1 to 5 µM

Structure (SMILES): Cc1c(C(F)(F)F)nc(C(F)(F)F)c(C)c1NC(=O)N=S(N)(=O)c1cc(C(C)(C)O)cs1 (single isomer, unassigned) [Example 755, (R) or (S)-N′-((3,5-dimethyl-2,6-bis(trifluoromethyl)pyridin-4-yl)carbamoyl)-4-(2-hydroxypropan-2-yl)thiophene-2-sulfonimidamide]
IC50 (Table B4, class symbols, read-out: hTHP-1 IC50): 0.2 to 1 µM

Structure (SMILES): CC1(C)CCc2c1nc1c(c2NC(=O)N=S(N)(=O)c2cnc(C(C)(O)CO)s2)CCC1 (stereo not drawn) [Compound 201, 2-(1,2-Dihydroxypropan-2-yl)-N′-((3,3-dimethyl-1,2,3,5,6,7-hexahydrodicyclopenta [b,e]pyridin-8-yl)carbamoyl)thiazole-5-sulfonimidamide]
IC50 [5]: 0.2 to 1 µM

Second part, the molecule after the results:

IC50 [1]: > 30 µM
Structure (SMILES): CC(C)n1nc(S(N)(=O)=NC(=O)Nc2c3c(nc4c2CCC4(C)C)CCC3)cc1CO (single isomer, unassigned) [Compound 652b]

IC50 [5]: 1 to 5 µM
Structure (SMILES): CC1(C)CCc2c1nc1c(c2NC(=O)N=S(N)(=O)c2sc(C(C)(O)CO)cc2F)CCC1 (single isomer, unassigned) [Compound 640c, (R, S) and (S, S) or (S, R) and (R, R)-5-(1,2-Dihydroxypropan-2-yl)-N′-((3,3-dimethyl-1,2,3,5,6,7-hexahydrodicyclopenta [b,e]pyridin-8-yl)carbamoyl)-3-fluorotliophene-2-sulfonimidamide]

IC50 [7]: 0.2 to 1 µM
Structure (SMILES): Cc1sc(S(N)(=O)=NC(=O)Nc2c3c(nc4c2CCC4)CCC3)cc1C(C)(C)O (single isomer, unassigned) [Compound 107a, (R) or (S)-N′-((1,2,3,5,6,7-hexahydrodicyclo-penta[b,e]pyridin-8-yl)carbamoyl)-4-(2-hydroxypropan-2-yl)-5-methylthiophene-2-sulfonimidamide]

IC50 [7]: 0.008 to 0.04 µM
Structure (SMILES): CC1CCc2c1nc1c(c2NC(=O)N=S(N)(=O)c2sc(C(C)(C)O)cc2F)CCC1 (single isomer, unassigned) [Compound 103ba, (R,R) or (R,S)-3-fluoro-5-(2-hydroxypropan-2-yl)-N′-((3-methyl-1,2,3,5,6,7-hexahydrodicyclo-penta[b,e]pyridin-8-yl)carbamoyl)thiophene-2-sulfonimidamide]

IC50 [2]: 5 to 30 µM
Structure (SMILES): Cc1nc2c(c(NC(=O)N=S(N)(=O)c3cnc(C(C)(C)O)s3)c1C(C)C)CCC2 (single isomer, unassigned) [Compound 116b, (R) or (S)-2-(2-hydroxypropan-2-yl)-N′-((3-isopropyl-2-methyl-6,7-dihydro-5H-cyclopenta[b]pyridin-4-yl)carbamoyl)thiazole-5-sulfonimidamide]

IC50 [7]: 1 to 5 µM
Structure (SMILES): CC(C)(O)c1csc(S(N)(=O)=NC(=O)Nc2c3c(nc4c2CCC42CC2)CCC3)c1 (single isomer, unassigned) [Compound 114b, (S) or (R)-4-(2-hydroxy-propan-2-yl)-N′-((1′,5′,6′,7′-tetrahydro-2′H-spiro[cyclopropane-1,3′-dicyclopenta[b,e]pyridin]-8′-yl)carbamoyl)thiophene-2-sulfonimidamide]
